Experimental data as given in patent US20200190087A1 (priority 2016, published 2020).

What was measured:
[1] = target: Human α2δ-1 subunit of Cav2.2 calcium channel (Homo sapiens, UniProt P54289); assay: Human α2δ-1 subunit of Cav2.2 calcium channel assay ([3H]-Gabapentin binding); details: human α2δ-1 enriched membranes, 15 nM [3H]-Gabapentin, binding expressed as Ki; read-out: α2δ1 binding activity
Experimental: Human α2δ-1 Subunit of Cav2.2 Calcium Channel Assay
Human α2δ-1 enriched membranes (2.5 μg) were incubated with 15 nM of radiolabeled [3H]-Gabapentin in assay buffer containing Hepes-KOH 10 mM, pH 7.4. NSB (non specific binding) was measured by adding 10 μM pregabalin. The binding of the test compound was measured at five different concentrations. After 60 min incubation at 27° C., binding reaction was terminated by filtering through Multiscreen GF/C (Millipore) presoaked in 0.5% polyethyleneimine in Vacuum Manifold Station, followed by 3 washes with ice-cold filtration buffer containing 50 mM Tris-HCl, pH 7.4. Filter plates were dried at 60° C. for 1 hour and 30 μl of scintillation cocktail were added to each well before radioactivity reading. Readings were performed in a Trilux 1450 Microbeta radioactive counter (Perkin Elmer).

[2] = target: T1, human μ-opioid receptor (Homo sapiens, UniProt P35372); assay: Human μ-opioid receptor radioligand assay ([3H]-DAMGO); format: binding; details: transfected CHO-K1 cell membranes, 1 nM [3H]-DAMGO, binding expressed as Ki; read-out: Mu binding activity
T1 construct: expressed in transfected cells; host or cells: CHO-K1
T1 sequence (P35372 whole entry): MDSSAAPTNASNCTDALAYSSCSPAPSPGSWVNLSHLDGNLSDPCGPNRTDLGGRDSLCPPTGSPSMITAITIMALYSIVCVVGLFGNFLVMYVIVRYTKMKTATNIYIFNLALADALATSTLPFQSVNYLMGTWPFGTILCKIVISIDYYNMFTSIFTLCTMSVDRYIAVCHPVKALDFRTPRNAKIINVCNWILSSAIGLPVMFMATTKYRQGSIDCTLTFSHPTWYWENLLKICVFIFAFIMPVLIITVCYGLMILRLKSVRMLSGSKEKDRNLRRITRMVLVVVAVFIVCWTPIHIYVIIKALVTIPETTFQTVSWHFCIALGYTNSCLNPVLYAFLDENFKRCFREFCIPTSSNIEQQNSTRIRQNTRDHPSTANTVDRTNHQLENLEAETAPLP
Experimental: Human μ-Opioid Receptor Radioligand Assay
To investigate binding properties of test compounds to human μ-opioid receptor, transfected CHO-K1 cell membranes and [^3H]-DAMGO (Perkin Elmer, ES-542-C), as the radioligand, were used. The assay was carried out with 20 μg of membrane suspension, 1 nM of [^3H]-DAMGO in either absence or presence of either buffer or 10 μM Naloxone for total and non-specific binding, respectively. Binding buffer contained Tris-HCl 50 mM, MgCl2 5 mM at pH 7.4. Plates were incubated at 27° C. for 60 minutes. After the incubation period, the reaction mix was then transferred to MultiScreen HTS, FC plates (Millipore), filtered and plates were washed 3 times with ice-cold 10 mM Tris-HCL (pH 7.4). Filters were dried and counted at approximately 40% efficiency in a MicroBeta scintillation counter (Perkin-Elmer) using EcoScint liquid scintillation cocktail. Preferably, transfected CHO-K1 cell membranes (20 μg) were incubated with 1 nM of [^3H]-DAMGO in assay buffer containing Tris-HCl 50 mM, MgCl2 5 mM at pH 7.4. NBS (non-specific binding) was measured by adding 10 μM Naloxone. The binding of the test compound was measured at five different concentrations. Plates were incubated at 27° C. for 60 minutes. After the incubation period, the reaction mix was then transferred to MultiScreen HTS, FC plates (Millipore), filtered and plates were washed 3 times with ice-cold 10 mM Tris-HCL (pH 7.4). Filters were dried and counted at approximately 40% efficiency in a MicroBeta scintillation counter (Perkin-Elmer) using EcoScint liquid scintillation cocktail.

Chain of Human α2δ-1 subunit of Cav2.2 calcium channel (P54289 25-1103): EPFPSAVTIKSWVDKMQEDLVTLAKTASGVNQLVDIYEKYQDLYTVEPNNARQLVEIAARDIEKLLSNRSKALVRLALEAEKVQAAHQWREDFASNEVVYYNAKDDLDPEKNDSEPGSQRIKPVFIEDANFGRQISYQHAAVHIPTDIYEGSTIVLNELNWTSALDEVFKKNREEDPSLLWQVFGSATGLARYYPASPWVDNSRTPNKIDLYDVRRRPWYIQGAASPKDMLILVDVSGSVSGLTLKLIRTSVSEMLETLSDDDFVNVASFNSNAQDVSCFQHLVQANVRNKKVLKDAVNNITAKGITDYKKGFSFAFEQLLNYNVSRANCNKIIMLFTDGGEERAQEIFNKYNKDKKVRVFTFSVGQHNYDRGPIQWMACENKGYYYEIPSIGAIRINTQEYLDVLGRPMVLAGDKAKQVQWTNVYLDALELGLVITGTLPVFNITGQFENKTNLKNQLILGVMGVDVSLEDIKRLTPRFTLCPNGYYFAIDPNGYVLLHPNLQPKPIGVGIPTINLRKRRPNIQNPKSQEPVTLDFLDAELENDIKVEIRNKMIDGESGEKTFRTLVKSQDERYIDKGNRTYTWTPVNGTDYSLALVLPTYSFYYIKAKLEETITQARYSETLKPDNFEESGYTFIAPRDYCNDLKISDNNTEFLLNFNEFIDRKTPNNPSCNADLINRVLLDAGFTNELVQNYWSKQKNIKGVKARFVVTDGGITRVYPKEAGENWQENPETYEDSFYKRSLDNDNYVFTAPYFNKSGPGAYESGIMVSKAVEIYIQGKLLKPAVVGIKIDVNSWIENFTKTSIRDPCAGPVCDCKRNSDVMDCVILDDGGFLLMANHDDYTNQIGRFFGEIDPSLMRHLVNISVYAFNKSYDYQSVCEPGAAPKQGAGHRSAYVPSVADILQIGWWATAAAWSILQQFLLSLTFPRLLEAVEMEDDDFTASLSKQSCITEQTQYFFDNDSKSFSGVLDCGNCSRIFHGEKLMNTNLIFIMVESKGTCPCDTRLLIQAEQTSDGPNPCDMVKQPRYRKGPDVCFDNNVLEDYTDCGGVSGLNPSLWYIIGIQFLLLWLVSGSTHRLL

Row | Compound | Ki [1] [µM] | Ki [2] [nM]
1 | CCOc1ccc(-n2nc3c(C4CCN(Cc5ccc(O)cn5)CC4)nnc(C)c3c2C)c(F)c1 [Ex 54, 6-((4-(2-(4-Ethoxy-2-fluorophenyl)-3,4-dimethyl-2H-pyrazolo[3,4-d]pyridazin-7-yl)piperidin-1-yl)methyl)pyridin-3-ol] | 0.5 to 3 | > 500
2 | CCOc1ccc(-n2nc3c(C4CCN(Cc5ccc(F)cn5)CC4)nnc(C)c3c2C)c(F)c1 [Ex 55, 2-(4-Ethoxy-2-fluorophenyl)-7-(1-((5-fluoropyridin-2-yl)methyl)piperidin-4-yl)-3,4-dimethyl-2H-pyrazolo[3,4-d]pyridazine] | 0.5 to 3 | > 500
3 | CCOc1ccc(-n2nc3c(C4CCN(Cc5ccc(C(F)(F)F)cn5)CC4)nnc(C)c3c2C)c(F)c1 [Ex 56, 2-(4-Ethoxy-2-fluorophenyl)-3,4-dimethyl-7-(1-((5-(trifluoromethyl)pyridin-2-yl)methyl)piperidin-4-yl)-2H-pyrazolo[3,4-d]pyridazine] | 0.5 to 3 | > 500
4 | CCOc1ccc(-n2nc3c(C4CCN(CCc5ccncc5)CC4)nnc(C)c3c2C)c(F)c1 [Ex 57, 2-(4-Ethoxy-2-fluorophenyl)-3,4-dimethyl-7-(1-(2-(pyridin-4-yl)ethyl)piperidin-4-yl)-2H-pyrazolo[3,4-d]pyridazine] | 0.5 to 3 | > 500
5 | CCOc1ccc(-n2nc3c(C4CCN(CC(O)c5ccccc5)CC4)nnc(C)c3c2C)c(F)c1 (stereo not drawn) [Ex 58, 2-(4-(2-(4-Ethoxy-2-fluorophenyl)-3,4-dimethyl-2H-pyrazolo[3,4-d]pyridazin-7-yl)piperidin-1-yl)-1-phenylethan-1-ol] | 0.5 to 3 | > 500
6 | CCOc1ccc(-n2nc3c(C#N)nnc(C)c3c2C)c(F)c1 [Ex 59, 2-(4-Ethoxy-2-fluorophenyl)-3,4-dimethyl-2H-pyrazolo[3,4-d]pyridazine-7-carbonitrile] | ≥ 5 | > 500

Further lines, results first:

Row | Ki [1] [µM] | Ki [2] [nM] | Compound
7 | 0.5 to 3 | > 500 | CCOc1ccc(-n2nc3c(CN4CCC(c5cccc(O)c5)CC4)nnc(C)c3c2C)c(F)c1 [Ex 60, 3-(1-((2-(4-Ethoxy-2-fluorophenyl)-3,4-dimethyl-2H-pyrazolo[3,4-d]pyridazin-7-yl)methyl)piperidin-4-yl)phenol]
8 | 0.5 to 3 | > 500 | CCOc1ccc(-n2nc3c(C(C#N)C(=O)OC(C)(C)C)nnc(C)c3c2C)c(F)c1 (stereo not drawn) [Ex 61, tert-Butyl 2-cyano-2-(2-(4-ethoxy-2-fluorophenyl)-3,4-dimethyl-2H-pyrazolo[3,4-d]pyridazin-7-yl)acetate]
9 | 0.5 to 3 | > 500 | CCOc1ccc(-n2nc3c(CC#N)nnc(C)c3c2C)c(F)c1 [Ex 62, 2-(2-(4-Ethoxy-2-fluorophenyl)-3,4-dimethyl-2H-pyrazolo[3,4-d]pyridazin-7-yl)acetonitrile]
10 | ≥ 5 | > 500 | CCOc1ccc(-n2nc3c(CCNC(=O)OC(C)(C)C)nnc(C)c3c2C)c(F)c1 [Ex 63, tert-Butyl (2-(2-(4-ethoxy-2-fluorophenyl)-3,4-dimethyl-2H-pyrazolo[3,4-d]pyridazin-7-yl)ethyl)carbamate]
11 | ≥ 5 | > 500 | CCOc1ccc(-n2nc3c(C(C#N)(Cc4ccccc4)C(=O)OC(C)(C)C)nnc(C)c3c2C)c(F)c1 (stereo not drawn) [Ex 64, tert-Butyl 2-cyano-2-(2-(4-ethoxy-2-fluorophenyl)-3,4-dimethyl-2H-pyrazolo[3,4-d]pyridazin-7-yl)-3-phenylpropanoate]
12 | 0.5 to 3 | > 500 | CCOc1ccc(-n2nc3c(C(C#N)Cc4ccccc4)nnc(C)c3c2C)c(F)c1 (stereo not drawn) [Ex 65, 2-(2-(4-Ethoxy-2-fluorophenyl)-3,4-dimethyl-2H-pyrazolo[3,4-d]pyridazin-7-yl)-3-phenylpropanenitrile]
